What all share (assay type): cell-based
The subject of assay [1] is patient-derived GBM cell line 350. As to the kind of experiment: Gliomasphere Formation Assay. The following applies: cell line 350, Recurrent; 50% sphere formation vs DMSO control. Here is the method:
(§1) Primary patient-derived GBM tumor samples were dissociated and plated under culture conditions (i.e. DMEM/F12 medium supplemented with B27, 20 ng/mL bFGF, 50 ng/mL EGF, penicillin/streptomycin, L-glutamine and 5 ug/mL heparin) that produce gliomaspheres. Cells were plated at a density of 50 cells per well and allowed to acclimate overnight at 37° C. The Dihydropyrazino-Pyrazine Compounds were added to the cultures on Day 2 and replenished every 7 days. EGF and FGF were also replenished every 7 days. The cells were fixed with PFA/methanol when the smallest sphere was greater than 60 microns, typically 3-5 weeks. The cells were fixed with PFA/methanol and the next day assessed for cell number, using for example, SYTO-9 fluorescent DNA dye. Plates were read 48 h later with a laser scanning imager.

Assay [2] relates to patient-derived GBM cell line 245. As to the kind of experiment: Gliomasphere Formation Assay. The note with it: cell line 245, Recurrent; 50% sphere formation vs DMSO control. Here is the method: as §1
In assay [3] the test system is patient-derived GBM cell line 206. The assay is described as follows: Gliomasphere Formation Assay. The following applies: cell line 206, Recurrent, MGMT Unkn/Highly Expressed; 50% sphere formation vs DMSO control. Here is the method: as §1
Assay [4] deals with patient-derived GBM cell line 309. As to the kind of experiment: Gliomasphere Formation Assay. The following applies: cell line 309, Recurrent, MGMT ND; 50% sphere formation vs DMSO control. How it is done:
as §1

In assay [5] the test system is patient-derived GBM cell line 296. As to the kind of experiment: Gliomasphere Formation Assay. The following applies: cell line 296, Recurrent, MGMT status −; 50% sphere formation vs DMSO control. Here is the method:
as §1

Assay [6] concerns patient-derived GBM cell line 217. The assay is described as follows: Gliomasphere Formation Assay. The following applies: cell line 217, Primary; 50% sphere formation vs DMSO control. How it is done: as §1
Assay [7] has as its system patient-derived GBM cell line 250. The assay is described as follows: Gliomasphere Formation Assay. The following applies: cell line 250, Recurrent, MGMT Unkn/Highly Expressed; 50% sphere formation vs DMSO control. Here is the method:
as §1

The test system of assay [8] is patient-derived GBM cell line 282. As to the kind of experiment: Gliomasphere Formation Assay. The note with it: cell line 282, Primary, MGMT ND; 50% sphere formation vs DMSO control. Here is the method: as §1
In assay [9] the test system is patient-derived GBM cell line 350. As to the kind of experiment: Gliomasphere Cell Number Assay. The following applies: cell line 350, Recurrent; 50% cell numbers vs DMSO control, Day 2 to Day 9; read-out: IC50 Cell Survival. Here is the method: (§2) Gliomasphere Cell Number Assay. Primary patient-derived GBM tumor samples were dissociated and plated under culture conditions that produce gliomaspheres (i.e. DMEM/F12 medium supplemented with B27, 20 ng/mL bFGF, 50 ng/mL EGF, penicillin/streptomycin, L-glutamine and 5 ug/mL heparin). Cells were plated at a density of 5000 cells/well and allowed to acclimate overnight at 37° C. The Dihydropyrazino-Pyrazine Compounds were added to the cultures on Day 2 and cells were kept in culture until Day 9. On Day 9, the cells were fixed with PFA/methanol and the next day assessed for cell number, using for example, SYTO-9 fluorescent DNA dye. Plates were read 48 h later with a laser scanning imager.

In assay [10] the test system is patient-derived GBM cell line 374. As to the kind of experiment: Gliomasphere Cell Number Assay. The following applies: cell line 374, Primary, MGMT status −; 50% cell numbers vs DMSO control, Day 2 to Day 9; read-out: IC50 Cell Survival. Here is the method: as §2
In assay [11] the test system is patient-derived GBM cell line 245. The assay is described as follows: Gliomasphere Cell Number Assay. The note with it: cell line 245, Recurrent; 50% cell numbers vs DMSO control, Day 2 to Day 9; read-out: IC50 Cell Survival. How it is done:
as §2

Assay [12] relates to patient-derived GBM cell line 206. As to the kind of experiment: Gliomasphere Cell Number Assay. The following applies: cell line 206, Recurrent, MGMT Unkn/Highly Expressed; 50% cell numbers vs DMSO control, Day 2 to Day 9; read-out: IC50 Cell Survival. How it is done:
as §2

Assay [13] concerns patient-derived GBM cell line 347. As to the kind of experiment: Gliomasphere Cell Number Assay. The note with it: cell line 347, Recurrent, MGMT status −; 50% cell numbers vs DMSO control, Day 2 to Day 9; read-out: IC50 Cell Survival. How it is done: as §2
For assay [14], the system named is patient-derived GBM cell line 296. The assay is described as follows: Gliomasphere Cell Number Assay. The following applies: cell line 296, Recurrent, MGMT status −; 50% cell numbers vs DMSO control, Day 2 to Day 9; read-out: IC50 Cell Survival. Here is the method:
as §2

Assay [15] relates to patient-derived GBM cell line 308. As to the kind of experiment: Gliomasphere Cell Number Assay. The note with it: cell line 308, Recurrent, MGMT Unkn/Highly Expressed; 50% cell numbers vs DMSO control, Day 2 to Day 9; read-out: IC50 Cell Survival. How it is done:
as §2

For assay [16], the system named is patient-derived GBM cell line 371. The assay is described as follows: Gliomasphere Cell Number Assay. The following applies: cell line 371, Recurrent, MGMT status −; 50% cell numbers vs DMSO control, Day 2 to Day 9; read-out: IC50 Cell Survival. Here is the method: as §2
Assay [17] relates to patient-derived GBM cell line 250. The assay is described as follows: Gliomasphere Cell Number Assay. The note with it: cell line 250, Recurrent, MGMT Unkn/Highly Expressed; 50% cell numbers vs DMSO control, Day 2 to Day 9; read-out: IC50 Cell Survival. How it is done: as §2
Assay [18] has as its system patient-derived GBM cell line 393. The assay is described as follows: Gliomasphere Cell Number Assay. The note with it: cell line 393, Primary, MGMT status +; 50% cell numbers vs DMSO control, Day 2 to Day 9; read-out: IC50 Cell Survival. How it is done: as §2
The subject of assay [19] is patient-derived GBM cell line 254. The assay is described as follows: Gliomasphere Cell Number Assay. The following applies: cell line 254, Recurrent; 50% cell numbers vs DMSO control, Day 2 to Day 9; read-out: IC50 Cell Survival. How it is done: as §2
The subject of assay [20] is patient-derived GBM cell line 378. As to the kind of experiment: Gliomasphere Cell Number Assay. The note with it: cell line 378, Recurrent, MGMT status −; 50% cell numbers vs DMSO control, Day 2 to Day 9; read-out: IC50 Cell Survival. Here is the method:
as §2

Each structure is given as a SMILES string.

A word on the IC50: it is the concentration at which inhibition is half-maximal. `CCN1C(=O)CNc2ncc(-c3ccc(-c4nc[nH]n4)nc3C)nc21` [Compound 1, 1-ethyl-7-(2-methyl-6-(1H-1,2,4-triazol-3-yl)pyridin-3-yl)-3,4-dihydropyrazino[2,3-b]pyrazin-2(1H)-one]: the IC50 is 39.3 nM in assay [1]; 22.6 nM in assay [2]; 142 nM in assay [3]; 159 nM in [4]; 544 nM in assay [5]; 42.1 nM in assay [6]. The IC50 in assay [7] turned out to be 39.6 nM; in [8], 25.8 nM; in assay [9], 99.6 nM; in assay [10], 165 nM; in [11] it was 68.7 nM; in assay [12], 163 nM. Moreover, the IC50 in assay [13] was 163 nM; in [14] it was 74.5 nM; in assay [15], 68.2 nM; in assay [16] it was 368 nM; in assay [17], 70.6 nM; in assay [18], 178 nM. In addition, the IC50 was found to be 99.6 nM in assay [19] and 81.3 nM in assay [20].

These data come from US10183019B2, “Treatment of cancer with dihydropyrazino-pyrazines” (Signal Pharmaceuticals, LLC, priority 2013, dated 2019).
